Results as given in ChEMBL document CHEMBL3639186, “Modulators of serotonin receptor” (2013).

Target: 5-hydroxytryptamine receptor 7 (Rattus norvegicus, UniProt P32305)
Assay: Biological Assay: Compound affinity for the rat 5-HT7 receptor subtype was evaluated by competitive radioligand binding assay using 5-carboxamido[H3]typtamine ([3H]5-CT)(Amersham Biosciences) detection.

Sequence of 5-hydroxytryptamine receptor 7 (P32305 whole entry): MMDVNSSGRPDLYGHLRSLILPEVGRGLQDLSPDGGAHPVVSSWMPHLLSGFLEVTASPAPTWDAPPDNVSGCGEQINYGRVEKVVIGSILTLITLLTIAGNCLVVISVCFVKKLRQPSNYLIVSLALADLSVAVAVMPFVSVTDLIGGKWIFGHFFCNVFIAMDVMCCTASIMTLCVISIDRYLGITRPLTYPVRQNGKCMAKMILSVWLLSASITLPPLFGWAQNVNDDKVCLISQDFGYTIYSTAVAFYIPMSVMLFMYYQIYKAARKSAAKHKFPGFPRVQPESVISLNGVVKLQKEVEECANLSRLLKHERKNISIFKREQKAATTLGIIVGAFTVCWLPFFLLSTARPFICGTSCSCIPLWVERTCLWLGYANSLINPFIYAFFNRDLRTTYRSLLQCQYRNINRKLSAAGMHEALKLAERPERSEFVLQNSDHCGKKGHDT

Cc1cc(C#N)c(OC2CNC2)cc1-c1ccccc1
Ki: ≥ 10 µM
